≈ marks a conversion by molar mass, not a printed value. Where two headings read alike, the source gives them in different places. Where only a bound is given, the exact number is not on record here.

Our source for the MIC and IC50 values is PMC10394672, “Crystal structure of dihydrofolate reductase from the emerging pathogenic fungus Candida auris” (Acta Crystallographica. Section D, Structural Biology, 2023).

One assay deals with T1, C. albicans.
T1 construct: SC 5314
Briefly: microbe, parasite or virus in culture. The arrangement: species or system Candida yeast. The note with it: Candida albicans, 24 h, 50% growth inhibition end point. The method, then: (§1) The antifungal activity of DHFR inhibitors was evaluated against C. albicans (SC 5314), C. glabrata (ATCC 2001) and C. auris (CBS 12766) by the broth microdilution technique (CLSI, 2017[▸]). DHFR inhibitors were serially diluted (1:2) in RPMI 1640 medium buffered with 0.165 M 3-(N-morpholino)propanesulfonic acid in 96-well flat-bottom plates and yeast suspension was added to the wells to obtain a final yeast concentration of 0.5–2.5 × 10^3 CFU ml^−1 and final concentrations of DHFR inhibitors in the range 1–500 µg ml^−1. […] Studies were then performed against Candida spp. yeasts, with the addition of two more antifolates: diaveridine (DIA) and pemetrexed (PMX) (Supplementary Table S1). The inhibitory effect of these inhibitors on the fungal growth of C. albicans, C. glabrata and C. auris was tested using the broth microdilution assay. […] (Supplementary Table S1), including C. auris, supporting the lack of affinity seen in the IC50 assay (Table 2 ▸).

For the next assay, the system named is T2, C. glabrata.
T2 construct: ATCC 2001
Briefly: microbe, parasite or virus in culture. The note with it: Nakaseomyces glabratus, 24 h, 50% growth inhibition end point. The arrangement: species or system Candida yeast. The method, then:
as §1

The test system of another assay is T3, C. auris.
T3 construct: CBS 12766
As to the kind of experiment: microbe, parasite or virus in culture. The arrangement: species or system Candida yeast. Conditions: Candidozyma auris, 24 h, 50% growth inhibition end point. The method, then: as §1

For assay [1], the target named is T4, dihydrofolate reductase (CauDHFR) (Candidozyma auris, UniProt A0A0L0P1H8).
T4 construct: gene QG37_02791; His-tag-removed CauDHFR
T4 sequence (A0A0L0P1H8 1-204): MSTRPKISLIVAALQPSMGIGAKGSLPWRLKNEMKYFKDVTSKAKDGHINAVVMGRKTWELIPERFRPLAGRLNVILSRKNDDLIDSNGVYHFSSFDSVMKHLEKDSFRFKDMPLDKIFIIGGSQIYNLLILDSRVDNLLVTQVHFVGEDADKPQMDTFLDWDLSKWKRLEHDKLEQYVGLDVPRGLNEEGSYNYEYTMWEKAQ
Briefly: ([…] Å); DSF shift +[…] °C; NADPH-consumption IC50. The assay is classed as biochemical.

`Nc1nc2[nH]cc(CCc3ccc(C(=O)N[C@@H](CCC(=O)O)C(=O)O)cc3)c2c(=O)[nH]1` [pemetrexed]: the MIC is 500 µg/mL (≈ 1170 µM) with C. albicans (read-out: MIC pemetrexed), 500 µg/mL (≈ 1170 µM) in the assay on C. glabrata (read-out: MIC pemetrexed) and above 500 µg/mL in the assay on C. auris (read-out: MIC pemetrexed).

Take `CCc1nc(N)nc(N)c1-c1ccc(Cl)cc1` [PYR, pyrimethamine]: the figures for the MIC with C. albicans (read-out: MIC pyrimethamine), with C. glabrata (read-out: MIC pyrimethamine) and in the assay with C. auris (read-out: MIC pyrimethamine) were 62.5 µg/mL (≈ 251 µM), 62.5 µg/mL (≈ 251 µM) and 125 µg/mL (≈ 503 µM), respectively.

The IC50 is the concentration that inhibits the measured activity by half. `CC1(C)N=C(N)N=C(N)N1c1ccc(Cl)cc1` [CYG, cycloguanil]: in assay [1], the IC50 is 401 µM. In addition, the MIC with C. albicans (read-out: MIC cycloguanil) was 500 µg/mL (≈ 1990 µM); with C. glabrata (read-out: MIC cycloguanil) it was 500 µg/mL (≈ 1990 µM); in the assay on C. auris (read-out: MIC cycloguanil), above 500 µg/mL.

Consider `CN(Cc1cnc2nc(N)nc(N)c2n1)c1ccc(C(=O)N[C@@H](CCC(=O)O)C(=O)O)cc1` [MTX, methotrexate], for which the results for the MIC in the assay with C. albicans (read-out: MIC methotrexate), in the assay with C. glabrata (read-out: MIC methotrexate) and in the assay on C. auris (read-out: MIC methotrexate) were 250 µg/mL (≈ 550 µM), above 500 µg/mL and above 500 µg/mL, respectively.

`COc1cc(Cc2cnc(N)nc2N)cc(OC)c1OC` [TMP, trimethoprim]: the MIC with C. albicans (read-out: MIC trimethoprim) is 500 µg/mL (≈ 1720 µM); in the assay with C. glabrata (read-out: MIC trimethoprim), 500 µg/mL (≈ 1720 µM); in the assay with C. auris (read-out: MIC trimethoprim) it was above 500 µg/mL.

On to `COc1ccc(Cc2cnc(N)nc2N)cc1OC` [diaveridine], for which the MIC in the assay with C. albicans (read-out: MIC diaveridine) is above 500 µg/mL; in the assay on C. glabrata (read-out: MIC diaveridine), 500 µg/mL (≈ 1920 µM); in the assay with C. auris (read-out: MIC diaveridine), above 500 µg/mL.
